PubChem BioAssay (NCI)
“And” between values parts separate entries of the source, which are not always exact repeats. Equal values may be shown once.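 Growth conditions: 96-well plates. Treatment: test compound, 48 hours, 5 concentrations. Analysis: linear interpolation between bracketing concentrations; unreached endpoints set to highest concentration. GI50: concentration for 50% inhibition of growth. Definition used: TGI = concentration required for complete inhibition of growth.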

Columns and labels:
Assay in all cases: inhibition of tumour cell growth, NCI panel, 48 h
SN12C renal = tested on: SN12C renal
MCF7 breast = tested on: MCF7 breast
SK-MEL-28 melanoma = tested on: SK-MEL-28 melanoma
LOX IMVI melanoma = tested on: LOX IMVI melanoma
MDA-MB-231 breast = tested on: MDA-MB-231 breast
OVCAR-3 ovarian = tested on: OVCAR-3 ovarian
U251 CNS = tested on: U251 CNS
IGROV1 ovarian = tested on: IGROV1 ovarian
SF-268 CNS = tested on: SF-268 CNS
HOP-62 NSCLC = tested on: HOP-62 NSCLC

SMILES | GI50 (SN12C renal) | TGI (SN12C renal) | GI50 (MCF7 breast) | TGI (MCF7 breast) | GI50 (SK-MEL-28 melanoma) | TGI (SK-MEL-28 melanoma) | GI50 (LOX IMVI melanoma) | TGI (LOX IMVI melanoma) | GI50 (MDA-MB-231 breast) | TGI (MDA-MB-231 breast) | GI50 (OVCAR-3 ovarian) | TGI (OVCAR-3 ovarian) | GI50 (U251 CNS) | TGI (U251 CNS) | GI50 (IGROV1 ovarian) | TGI (IGROV1 ovarian) | GI50 (SF-268 CNS) | TGI (SF-268 CNS) | GI50 (HOP-62 NSCLC) | TGI (HOP-62 NSCLC)
CC1=C(CCC(C)N(C)Cc2ccc(OCCCN3CCCC3)cc2)C(C)(C)CCC1 (stereo not given) | 11 µM | 24.8 µM | 1.63 µM | 3.65 µM | 1.68 µM | 3.5 µM | 1.66 µM | 3.18 µM | 1.89 µM | 4.48 µM | 5.72 µM | 19.3 µM | 2.46 µM | 6.38 µM | 4.03 µM | 16.6 µM | 4.07 µM | 17.5 µM | 3.54 µM | 17.5 µM
O=C(/C(=C/c1ccccc1)CN1CCCCC1)c1ccccc1 | 1.67 µM | 4.76 µM | 0.464 µM | 2.85 µM | 1.63 µM | 3.5 µM | 0.364 µM | 1.5 µM | 1.96 µM | 5.75 µM | 0.679 µM | 2.16 µM | 1.35 µM | 3.22 µM | 1.89 µM | 6.25 µM | 2.63 µM | 15 µM | 2.88 µM | 9.93 µM
CCCn1c(C)nc2c1C(=O)c1ccccc1C2=O | 25.5 µM | > 100 µM | 30.9 µM | > 100 µM | > 100 µM | > 100 µM | 22.9 µM | > 100 µM | 34.1 µM | > 100 µM | 11.6 µM | 39.2 µM | 22.4 µM | > 100 µM | 14.5 µM | 42.1 µM | 20.8 µM | > 100 µM | 41.3 µM | > 100 µM
COC(=O)C(Cc1ccccc1)NC(=O)NC(=O)NC(=O)CI (stereo not given) | 20.3 µM | 53.3 µM | 4.2 µM | 28.5 µM | 3.5 µM | 13.8 µM | 1.56 µM | 3.23 µM | 5.2 µM | 20.1 µM | 2.97 µM | 8.89 µM | 16.6 µM | 30.5 µM | 3.05 µM | 10.1 µM | 14.1 µM | 30.4 µM | 18 µM | 33.7 µM
CN(C)c1ccc2c(c1)Sc1cc(N(C)C)ccc1N2C(=O)c1ccccc1 | > 100 µM | > 100 µM | 37 µM | > 100 µM | 43.1 µM | > 100 µM | 24.2 µM | > 100 µM | 64.2 µM | > 100 µM | 25.7 µM | > 100 µM | 45.5 µM | > 100 µM | 14.1 µM | 77.6 µM | 30.3 µM | > 100 µM | 92.4 µM | > 100 µM
O=C(c1ccccc1)C(CN1CCOCC1)c1ccccc1 (stereo not given) | 1.73 µM | 4.47 µM | 1.25 µM | 2.66 µM | 1.76 µM | 3.35 µM | 1.32 µM | 3.19 µM | 1.83 µM | 5.05 µM | 0.465 µM | 1.66 µM | 1.71 µM | 4.09 µM | 1.75 µM | 4.24 µM | 1.65 µM | 3.47 µM | 6.5 µM | 19.7 µM
Cc1ccc(C(=O)Nc2ccc(CN3CCN(C)CC3)c(C(F)(F)F)c2)cc1C#Cc1cnc2cccnn12 | 0.262 µM and 0.515 µM | 1.26 µM and 3.45 µM | 0.72 µM and 1.29 µM | 2.17 µM and 4.42 µM | 0.367 µM and 0.742 µM | 1.51 µM and 3.7 µM | 0.178 µM and 0.336 µM | 0.973 µM and 1.16 µM | 0.215 µM and 0.317 µM | 1.05 µM and 1.24 µM | 0.785 µM and 1.36 µM | 2.07 µM and 4.2 µM | 0.473 µM and 1.22 µM | 1.68 µM and 3.94 µM | 0.272 µM and 0.269 µM | 1.28 µM and 1.81 µM | 0.474 µM and 0.73 µM | 2.06 µM and 4.27 µM | 0.413 µM and 0.849 µM | 1.53 µM and 3.73 µM
N#Cc1c(N/N=C/c2c(Cl)cccc2Cl)nc(N)nc1N1CCOCC1 | 16.8 µM | 85.7 µM | 3.18 µM | > 100 µM | 82.1 µM | > 100 µM | 8.97 µM | > 100 µM | 11.7 µM | 56.1 µM | 3.6 µM | > 100 µM | 15.6 µM | > 100 µM | 3.95 µM | 34.6 µM | 16.5 µM | > 100 µM | 13.9 µM | > 100 µM
CN1CCN(Cc2ccc(NC(=O)c3cncc(C#Cc4cnc(N)c5ccncc45)c3)cc2C(F)(F)F)CC1 | 0.837 µM | > 50 µM | 1.93 µM | 8.92 µM | 0.245 µM | 2.18 µM | 0.176 µM | 0.707 µM | 0.307 µM | 1.26 µM | 1.53 µM | 7.51 µM | 0.782 µM | 7.65 µM | 0.331 µM | 2.89 µM | 0.972 µM | 6.89 µM | 1.03 µM | > 16.6 µM
COC(=O)Cn1c2c(c3c(O)cccc31)C(=O)c1ccccc1-2 | > 100 µM | > 100 µM | > 100 µM | > 100 µM | > 100 µM | > 100 µM | > 100 µM | > 100 µM | 40.4 µM | > 100 µM | > 100 µM | > 100 µM | 79.2 µM | > 100 µM | > 100 µM | > 100 µM | > 100 µM | > 100 µM | > 100 µM | > 100 µM
CN(C)c1ccc(/C=C\c2cccc[n+]2C)cc1 | 17 µM | > 100 µM | 4.52 µM | > 100 µM | 14.8 µM | 81.7 µM | 5.31 µM | 36.6 µM | 13.7 µM | 93.2 µM | 3.3 µM | 30.1 µM | 4.89 µM | > 100 µM | 8.66 µM | > 100 µM | 5.52 µM | > 100 µM | 5.83 µM | 90.7 µM
C=CC(=O)N1CCN(c2ccc3cccc(NC(=O)c4cnc(C)cn4)c3n2)CC1 | 2.47 µM | 16.2 µM | 3.44 µM | > 100 µM | 7.88 µM | 20.5 µM | 5.14 µM | 21.4 µM | 3.5 µM | > 100 µM | 2.91 µM | > 100 µM | 3.85 µM | 36.4 µM | 1.29 µM | 15.2 µM | 3.67 µM | 49.2 µM | 4.24 µM | > 100 µM
